The record followed here is publication PMC9927415, “Tyrosine Kinase Inhibitors Display Potent Activity against Cryptosporidium parvum” (Microbiology Spectrum, 2022).

What all share (test): KINOMEscan competitive binding, whole panel
Experiment [1] deals with T1, panel of 203 kinases (Homo sapiens, UniProt P09769).
T1 construct: purchased DiscoverX (KINOMEscan)
The following applies: 10 µM, n=1; kinase FGR; read-out: Percent inhibition FGR. In a few lines:
(§1)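 Kinases expressed as T7 bacteriophage fusions; test compound competes with an immobilized ATP-site probe ligand. Kinase still bound to the solid support was quantified and expressed as percentage inhibition.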

The target in experiment [2] is T2, panel of 203 kinases (Homo sapiens, UniProt P22607).
T2 construct: purchased DiscoverX (KINOMEscan)
Particulars: 10 µM, n=1; kinase FGFR3; read-out: Percent inhibition FGFR3. In a few lines: as §1

Experiment [3] deals with T3, panel of 203 kinases (Homo sapiens, UniProt P29320).
T3 construct: purchased DiscoverX (KINOMEscan)
T3 sequence (P29320 21-983): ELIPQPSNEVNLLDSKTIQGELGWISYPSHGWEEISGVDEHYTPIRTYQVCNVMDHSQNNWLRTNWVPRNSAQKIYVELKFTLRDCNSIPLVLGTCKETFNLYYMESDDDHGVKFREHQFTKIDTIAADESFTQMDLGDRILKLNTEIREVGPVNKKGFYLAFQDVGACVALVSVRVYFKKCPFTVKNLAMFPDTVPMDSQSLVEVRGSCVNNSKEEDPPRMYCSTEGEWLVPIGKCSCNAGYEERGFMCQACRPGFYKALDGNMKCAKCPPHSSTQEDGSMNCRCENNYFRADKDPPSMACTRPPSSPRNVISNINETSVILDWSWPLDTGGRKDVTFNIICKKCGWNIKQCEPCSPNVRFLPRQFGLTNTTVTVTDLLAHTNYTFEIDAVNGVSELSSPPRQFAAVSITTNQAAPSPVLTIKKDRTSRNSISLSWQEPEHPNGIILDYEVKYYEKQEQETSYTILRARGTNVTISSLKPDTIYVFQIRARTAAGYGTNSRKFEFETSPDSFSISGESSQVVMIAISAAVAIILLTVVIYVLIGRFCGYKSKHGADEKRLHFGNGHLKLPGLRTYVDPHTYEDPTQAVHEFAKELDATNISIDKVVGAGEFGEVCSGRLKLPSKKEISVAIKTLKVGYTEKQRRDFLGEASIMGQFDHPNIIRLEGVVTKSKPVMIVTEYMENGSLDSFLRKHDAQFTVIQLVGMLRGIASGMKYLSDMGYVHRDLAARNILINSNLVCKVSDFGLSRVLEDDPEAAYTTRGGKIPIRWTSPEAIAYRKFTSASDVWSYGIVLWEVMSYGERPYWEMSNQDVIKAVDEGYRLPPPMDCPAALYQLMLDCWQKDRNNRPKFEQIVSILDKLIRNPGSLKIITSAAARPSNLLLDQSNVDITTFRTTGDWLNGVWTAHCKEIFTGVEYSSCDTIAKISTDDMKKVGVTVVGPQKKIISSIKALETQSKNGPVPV
The following applies: 10 µM, n=1; kinase EPHA3; read-out: Percent inhibition EPHA3. Put shortly:
as §1

The target of experiment [4] is T4, panel of 203 kinases (Homo sapiens, UniProt P29322).
T4 construct: purchased DiscoverX (KINOMEscan)
T4 sequence (P29322 28-1005): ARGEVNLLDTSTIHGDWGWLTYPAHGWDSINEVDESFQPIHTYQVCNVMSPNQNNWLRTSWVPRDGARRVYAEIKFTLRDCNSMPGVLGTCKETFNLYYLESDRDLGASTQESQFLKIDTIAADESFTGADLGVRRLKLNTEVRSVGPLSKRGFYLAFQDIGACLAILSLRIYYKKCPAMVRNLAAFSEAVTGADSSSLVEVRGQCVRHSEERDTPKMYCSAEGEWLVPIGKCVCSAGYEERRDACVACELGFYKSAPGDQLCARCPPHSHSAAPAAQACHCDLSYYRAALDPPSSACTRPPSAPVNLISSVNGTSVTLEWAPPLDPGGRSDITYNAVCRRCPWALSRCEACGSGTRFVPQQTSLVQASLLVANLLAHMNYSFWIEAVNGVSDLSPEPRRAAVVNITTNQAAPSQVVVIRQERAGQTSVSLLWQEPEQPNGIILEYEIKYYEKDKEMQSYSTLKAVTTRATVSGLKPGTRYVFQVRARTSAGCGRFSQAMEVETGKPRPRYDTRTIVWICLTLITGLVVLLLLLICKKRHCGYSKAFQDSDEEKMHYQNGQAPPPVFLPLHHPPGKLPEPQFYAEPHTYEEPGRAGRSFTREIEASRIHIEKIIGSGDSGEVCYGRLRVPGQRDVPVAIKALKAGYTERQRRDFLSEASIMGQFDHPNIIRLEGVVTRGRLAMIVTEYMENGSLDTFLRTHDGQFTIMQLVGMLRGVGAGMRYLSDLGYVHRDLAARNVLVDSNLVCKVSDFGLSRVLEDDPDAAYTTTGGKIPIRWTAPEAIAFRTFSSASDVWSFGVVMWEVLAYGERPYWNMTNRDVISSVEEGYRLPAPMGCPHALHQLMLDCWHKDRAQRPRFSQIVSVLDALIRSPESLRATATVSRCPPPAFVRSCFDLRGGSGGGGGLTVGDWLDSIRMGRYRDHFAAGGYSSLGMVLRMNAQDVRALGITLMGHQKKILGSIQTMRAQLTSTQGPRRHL
Particulars: 10 µM, n=1; kinase EPHA8; read-out: Percent inhibition EPHA8. Put shortly:
as §1

The target in experiment [5] is T5, panel of 203 kinases (Homo sapiens, UniProt P36896).
T5 construct: purchased DiscoverX (KINOMEscan)
T5 sequence (P36896 24-505): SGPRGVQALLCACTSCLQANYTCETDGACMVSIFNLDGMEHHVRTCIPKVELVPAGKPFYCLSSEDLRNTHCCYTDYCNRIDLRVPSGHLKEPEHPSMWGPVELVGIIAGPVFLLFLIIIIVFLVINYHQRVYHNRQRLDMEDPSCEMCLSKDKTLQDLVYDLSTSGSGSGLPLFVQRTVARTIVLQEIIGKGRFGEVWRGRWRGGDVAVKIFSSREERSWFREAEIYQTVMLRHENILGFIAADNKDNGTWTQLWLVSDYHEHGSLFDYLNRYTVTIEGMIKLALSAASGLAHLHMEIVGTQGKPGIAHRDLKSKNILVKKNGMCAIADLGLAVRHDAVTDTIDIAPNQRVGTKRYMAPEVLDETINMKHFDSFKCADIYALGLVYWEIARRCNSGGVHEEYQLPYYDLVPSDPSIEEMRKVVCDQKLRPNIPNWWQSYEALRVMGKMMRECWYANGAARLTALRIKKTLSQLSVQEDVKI
Particulars: 10 µM, n=1; kinase ACVR1B; read-out: Percent inhibition ACVR1B. Put shortly:
as §1

For experiment [6], the target named is T6, panel of 203 kinases (Homo sapiens, UniProt Q14012).
T6 construct: purchased DiscoverX (KINOMEscan)
The following applies: 10 µM, n=1; kinase CAMK1; read-out: Percent inhibition CAMK1. In a few lines:
as §1

The target of experiment [7] is T7, panel of 203 kinases (Homo sapiens, UniProt Q96GD4).
T7 construct: purchased DiscoverX (KINOMEscan)
The following applies: 10 µM, n=1; kinase AURKB; read-out: Percent inhibition AURKB. Put shortly:
as §1

Molecules are shown by their SMILES.

Usually inhibition stands for the change of the read-out against control, counted positive when it falls.

T6 sequence (Q14012 whole entry): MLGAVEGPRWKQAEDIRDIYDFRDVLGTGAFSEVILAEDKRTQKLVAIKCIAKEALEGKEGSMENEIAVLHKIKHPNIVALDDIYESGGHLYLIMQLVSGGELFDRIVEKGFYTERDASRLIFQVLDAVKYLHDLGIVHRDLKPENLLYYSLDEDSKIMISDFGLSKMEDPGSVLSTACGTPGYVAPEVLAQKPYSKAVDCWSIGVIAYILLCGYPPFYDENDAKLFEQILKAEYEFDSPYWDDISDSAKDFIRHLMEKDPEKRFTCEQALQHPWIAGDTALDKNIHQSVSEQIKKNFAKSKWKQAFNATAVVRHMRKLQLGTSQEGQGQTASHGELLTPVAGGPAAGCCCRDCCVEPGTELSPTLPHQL
T7 sequence (Q96GD4 whole entry): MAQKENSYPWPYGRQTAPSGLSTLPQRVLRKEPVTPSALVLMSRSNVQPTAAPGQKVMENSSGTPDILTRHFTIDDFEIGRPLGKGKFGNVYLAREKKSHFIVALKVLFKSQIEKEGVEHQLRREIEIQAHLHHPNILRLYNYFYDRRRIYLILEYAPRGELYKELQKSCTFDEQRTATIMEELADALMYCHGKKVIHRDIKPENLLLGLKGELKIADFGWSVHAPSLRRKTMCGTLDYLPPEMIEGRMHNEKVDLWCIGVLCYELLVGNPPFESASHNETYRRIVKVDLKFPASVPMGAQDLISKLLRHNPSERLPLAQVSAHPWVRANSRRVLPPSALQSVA
T1 sequence (P09769 whole entry): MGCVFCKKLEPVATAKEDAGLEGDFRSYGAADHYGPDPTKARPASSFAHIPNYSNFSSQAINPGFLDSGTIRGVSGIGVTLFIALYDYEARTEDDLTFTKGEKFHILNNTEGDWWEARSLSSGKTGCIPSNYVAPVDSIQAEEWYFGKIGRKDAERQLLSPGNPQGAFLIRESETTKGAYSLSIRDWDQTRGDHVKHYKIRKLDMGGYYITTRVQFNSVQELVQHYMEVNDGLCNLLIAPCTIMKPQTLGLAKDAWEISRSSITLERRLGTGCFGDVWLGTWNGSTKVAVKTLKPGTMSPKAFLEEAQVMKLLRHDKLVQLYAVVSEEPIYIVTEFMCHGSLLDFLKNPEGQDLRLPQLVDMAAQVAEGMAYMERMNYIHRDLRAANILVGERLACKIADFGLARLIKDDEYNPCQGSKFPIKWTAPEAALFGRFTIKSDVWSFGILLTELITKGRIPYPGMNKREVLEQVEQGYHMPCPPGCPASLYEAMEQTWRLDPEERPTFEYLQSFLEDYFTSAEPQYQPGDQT
T2 sequence (P22607 23-806): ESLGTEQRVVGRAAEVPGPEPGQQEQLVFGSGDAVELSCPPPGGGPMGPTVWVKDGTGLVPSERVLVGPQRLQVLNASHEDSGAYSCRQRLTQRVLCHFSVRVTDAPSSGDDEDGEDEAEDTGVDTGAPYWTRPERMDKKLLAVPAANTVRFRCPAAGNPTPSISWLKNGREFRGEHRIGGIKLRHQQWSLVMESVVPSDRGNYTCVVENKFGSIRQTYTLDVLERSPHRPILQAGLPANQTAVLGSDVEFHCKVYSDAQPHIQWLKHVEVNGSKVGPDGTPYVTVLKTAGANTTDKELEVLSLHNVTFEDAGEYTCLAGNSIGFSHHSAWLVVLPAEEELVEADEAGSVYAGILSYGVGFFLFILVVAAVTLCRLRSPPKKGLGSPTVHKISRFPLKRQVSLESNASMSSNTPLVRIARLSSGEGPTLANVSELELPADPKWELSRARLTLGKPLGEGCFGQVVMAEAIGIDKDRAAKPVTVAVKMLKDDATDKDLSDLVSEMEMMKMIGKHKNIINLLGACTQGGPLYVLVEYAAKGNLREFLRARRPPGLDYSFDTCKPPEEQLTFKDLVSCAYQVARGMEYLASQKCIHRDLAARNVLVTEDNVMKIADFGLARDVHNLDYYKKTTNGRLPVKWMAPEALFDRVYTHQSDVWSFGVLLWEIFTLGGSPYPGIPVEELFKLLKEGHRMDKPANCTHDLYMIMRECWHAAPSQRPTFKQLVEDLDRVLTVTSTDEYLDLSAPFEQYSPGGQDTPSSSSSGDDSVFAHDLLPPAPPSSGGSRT

In the case of `CN1CCN(c2ccc(Nc3nccc(-c4cnn5ncccc45)n3)cc2C#N)CC1` [Compound 1], the inhibition at 10 µM was 89.5% on panel of 203 kinases [1]; 0% at panel of 203 kinases [2]; 98% on panel of 203 kinases [3]; 0% on panel of 203 kinases [4]; 77.1% at panel of 203 kinases [5]; 92.3% on panel of 203 kinases [6]. Besides, the inhibition at 10 µM on panel of 203 kinases [7] was found to be 88.5%.

As for `COc1ccc(Nc2nccc(-c3cnn4ncccc34)n2)cc1` [Compound 2], the inhibition at 10 µM on panel of 203 kinases [1] came out at 67.4%; on panel of 203 kinases [2], 67.6%; at panel of 203 kinases [3], 85%; on panel of 203 kinases [4] it was 0%; at panel of 203 kinases [5] it was 0%; on panel of 203 kinases [6] it was 0%. Besides, the inhibition at 10 µM at panel of 203 kinases [7] came out at 93.3%.

For `Cc1ccc(O)cc1Nc1ccnc(Nc2cccc(C(N)=O)c2)n1` [Compound 3], the inhibition at 10 µM is 100% on panel of 203 kinases [1]; 0% at panel of 203 kinases [2]; 100% on panel of 203 kinases [3]; 100% at panel of 203 kinases [4]; 96.5% at panel of 203 kinases [5]; 0% at panel of 203 kinases [6]. Moreover, on panel of 203 kinases [7], the inhibition at 10 µM amounted to 82.8%.

With `Cc1ccc(O)cc1N(C)c1ccnc(Nc2cccc(S(N)(=O)=O)c2)n1` [Compound 4], the inhibition at 10 µM at panel of 203 kinases [1] worked out at 100%; at panel of 203 kinases [2], 65.4%; on panel of 203 kinases [3] it was 100%; at panel of 203 kinases [4], 100%; on panel of 203 kinases [5] it was 99%; at panel of 203 kinases [6], 0%. Also, at panel of 203 kinases [7], the inhibition at 10 µM was 79.5%.

Take `Fc1cccc(COc2ccc(Nc3ncnc4c3CN(CCN3CCOCC3)CC4)cc2Cl)c1` [Compound 6]: the inhibition at 10 µM turned out to be 0% on panel of 203 kinases [1]; 96.3% at panel of 203 kinases [2]; 0% at panel of 203 kinases [3]; 0% on panel of 203 kinases [4]; 0% at panel of 203 kinases [5]; 0% at panel of 203 kinases [6]. The inhibition at 10 µM at panel of 203 kinases [7] was found to be 0%.

Take `COc1cc(Nc2nccc(-c3sc(N)nc3-c3cccc(NC(=O)c4c(F)cccc4F)c3)n2)cc(OC)c1OC` [Compound 7]: the inhibition at 10 µM at panel of 203 kinases [1] worked out at 100%; at panel of 203 kinases [2] it was 100%; on panel of 203 kinases [3] it was 99.7%; on panel of 203 kinases [4], 100%; on panel of 203 kinases [5], 74.9%; at panel of 203 kinases [6] it was 91.5%. Further, on panel of 203 kinases [7], the inhibition at 10 µM was determined as 100%.

Take `C[C@@H](Oc1cc(-c2cnc3ccccn23)sc1C(N)=O)c1ccccc1Cl` [Compound 8]: the inhibition at 10 µM at panel of 203 kinases [1], at panel of 203 kinases [2], on panel of 203 kinases [3], at panel of 203 kinases [4], on panel of 203 kinases [5] and on panel of 203 kinases [6] was 0% throughout. The inhibition at 10 µM on panel of 203 kinases [7] turned out to be 87.3%.

Regarding `c1ccc(COc2cccc(-c3ccnc4[nH]ccc34)c2)cc1` [Compound 9], the inhibition at 10 µM on panel of 203 kinases [1], on panel of 203 kinases [2], at panel of 203 kinases [3], on panel of 203 kinases [4], at panel of 203 kinases [5] and on panel of 203 kinases [6] was 0% each time. The inhibition at 10 µM on panel of 203 kinases [7] came out at 0%.

On to `Clc1ccc(Nc2ncc(-c3ccccc3)s2)cc1` [Compound 10], for which the inhibition at 10 µM at panel of 203 kinases [1], on panel of 203 kinases [2], at panel of 203 kinases [3], at panel of 203 kinases [4], on panel of 203 kinases [5] and at panel of 203 kinases [6] was 0% throughout. On panel of 203 kinases [7], the inhibition at 10 µM came out at 0%.

As for `Nc1ncc2c(-c3ccncc3)c[nH]c2n1` [Compound 11], the inhibition at 10 µM was found to be 76.8% at panel of 203 kinases [1]; 0% at panel of 203 kinases [2]; 94.6% on panel of 203 kinases [3]; 0% on panel of 203 kinases [4]; 0% at panel of 203 kinases [5]; 0% at panel of 203 kinases [6]. Besides, the inhibition at 10 µM on panel of 203 kinases [7] was found to be 65.6%.
